Test results as given in ChEMBL document CHEMBL3044874, “Synthesis and characterization of some heterocyclic schiff bases: potential anticonvulsant agents” (Med Chem Res, 2011).
Active and inactive are the calls of the source. No cut-off for these calls is given here.

What was measured:
[1] = test system: Mus musculus; test: Anticonvulsant activity in ip dosed Mus musculus Swiss albino (mouse) assessed as protection against maximal electroshock-induced seizure at 4 hr; type: functional; conditions: read-out: MED
[2] = test system: Mus musculus; test: Anticonvulsant activity in ip dosed Mus musculus Swiss albino (mouse) assessed as protection against maximal electroshock-induced seizure at 0.5 hr; type: functional; conditions: read-out: MED
[3] = test system: Mus musculus; test: Neurotoxicity against ip dosed Mus musculus Swiss albino (mouse) at 0.5 hr by rota rod test; type: toxicity, organism-based; conditions: in vivo
[4] = test system: Mus musculus; test: Neurotoxicity against ip dosed Mus musculus Swiss albino (mouse) at 4 hr by rota rod test; type: toxicity, organism-based; conditions: in vivo
[5] = test system: Mus musculus; test: Anticonvulsant activity in ip dosed Mus musculus Swiss albino (mouse) assessed as protection against strychnine-induced seizure at 4 hr; type: functional; conditions: read-out: MED
[6] = test system: Mus musculus; test: Anticonvulsant activity in ip dosed Mus musculus Swiss albino (mouse) assessed as protection against strychnine-induced seizure at 0.5 hr; type: functional; conditions: read-out: MED
[7] = test system: Mus musculus; test: Anticonvulsant activity in Mus musculus Swiss albino (mouse) assessed as protection against pentylenetetrazole-induced seizure at 300 mg/kg, ip measured at 4 hr; type: functional, organism-based; set-up: dose 300 mg/kg
[8] = test system: Mus musculus; test: Anticonvulsant activity in Mus musculus Swiss albino (mouse) assessed as protection against pentylenetetrazole-induced seizure at 300 mg/kg, ip measured at 0.5 hr; type: functional, organism-based; set-up: dose 300 mg/kg
[9] = test system: Rattus norvegicus; test: Anticonvulsant activity in Rattus norvegicus Wistar (rat) assessed as protection against maximal electroshock-induced seizure at 30 mg/kg, po measured at 4 hr; type: functional, organism-based; set-up: dose 30 mg/kg
[10] = test system: Rattus norvegicus; test: Anticonvulsant activity in Rattus norvegicus Wistar (rat) assessed as protection against maximal electroshock-induced seizure at 30 mg/kg, po measured at 2 hr; type: functional, organism-based; set-up: dose 30 mg/kg
[11] = test system: Rattus norvegicus; test: Anticonvulsant activity in Rattus norvegicus Wistar (rat) assessed as protection against maximal electroshock-induced seizure at 30 mg/kg, po measured at 1 hr; type: functional, organism-based; set-up: dose 30 mg/kg
[12] = test system: Rattus norvegicus; test: Anticonvulsant activity in Rattus norvegicus Wistar (rat) assessed as protection against maximal electroshock-induced seizure at 30 mg/kg, po measured at 0.5 hr; type: functional, organism-based; set-up: dose 30 mg/kg
[13] = test system: Rattus norvegicus; test: Anticonvulsant activity in Rattus norvegicus Wistar (rat) assessed as protection against maximal electroshock-induced seizure at 30 mg/kg, po measured at 0.25 hr; type: functional, organism-based; set-up: dose 30 mg/kg
[14] = Protection index, ratio TD50 for neurotoxicity to ED50 for protection against maximal electroshock-induced seizure in Mus musculus Swiss albino (mouse); type: toxicity, organism-based; conditions: in vivo, read-out: Ratio TD50/ED50
[15] = Neurotoxicity against ip dosed Mus musculus Swiss albino (mouse) by rota rod test; type: toxicity, organism-based; conditions: in vivo
[16] = test system: Mus musculus; test: Anticonvulsant activity in Mus musculus Swiss albino (mouse) assessed as protection against strychnine-induced seizure at 300 mg/kg, ip; type: functional, organism-based; set-up: dose 300 mg/kg
[17] = test system: Mus musculus; test: Anticonvulsant activity in Mus musculus Swiss albino (mouse) assessed as protection against pentylenetetrazole-induced seizure at 300 mg/kg, ip; type: functional, organism-based; set-up: dose 300 mg/kg
[18] = test system: Mus musculus; test: Anticonvulsant activity in ip dosed Mus musculus Swiss albino (mouse) assessed as protection against maximal electroshock-induced seizure; type: functional
[19] = test system: Mus musculus; test: Neurotoxicity against Mus musculus Swiss albino (mouse) at 300 mg/kg, ip measured at 4 hr by rota rod test; type: toxicity, organism-based; set-up: dose 300 mg/kg, route intraperitoneal; conditions: in vivo
[20] = test system: Mus musculus; test: Anticonvulsant activity in ip dosed Mus musculus Swiss albino (mouse) assessed as protection against strychnine-induced seizure; type: functional
[21] = test system: Mus musculus; test: Anticonvulsant activity in Mus musculus Swiss albino (mouse) assessed as protection against strychnine-induced seizure at 300 mg/kg, ip measured at 4 hr; type: functional, organism-based; set-up: dose 300 mg/kg
[22] = test system: Mus musculus; test: Anticonvulsant activity in Mus musculus Swiss albino (mouse) assessed as protection against strychnine-induced seizure at 300 mg/kg, ip measured at 0.5 hr; type: functional, organism-based; set-up: dose 300 mg/kg
[23] = test system: Mus musculus; test: Anticonvulsant activity in ip dosed Mus musculus Swiss albino (mouse) assessed as protection against pentylenetetrazole-induced seizure; type: functional

Row | SMILES | minimal effective dose [1] [mg/kg] | minimal effective dose [2] [mg/kg] | MTC [3] [mg/kg] | MTC [4] [mg/kg] | minimal effective dose [5] [mg/kg] | minimal effective dose [6] [mg/kg] | Activity [7] | Activity [8] | Activity [9] | Activity [10] | Activity [11] | Activity [12] | Activity [13] | selectivity ratio [14] | TD50 [15] [mg/kg] | Activity [16] | Activity [17] | ED50 [18] [mg/kg] | further results
1 | C/C(=N\Cc1cccnc1)c1cccc(N)c1 | 30 | 30 | 100 | 100 | 100 | 30 | inactive | inactive | Active | Active | Active | Active | Active | 6.97 | 60.2 | inactive | inactive | 8.64 | –
2 | Clc1ccccc1/C=N/Cc1cccnc1 | 30 | 30 | 300 | – | 100 | 100 | inactive | inactive | Active | Active | Active | Active | Active | 17.3 | 202 | – | inactive | 11.7 | Activity [19]: Non-toxic; ED50 [20]: 93.6 mg/kg
3 | C(=C\c1ccccc1)/C=N/Cc1cccnc1 | 300 | 30 | 100 | 100 | – | – | inactive | inactive | inactive | inactive | inactive | inactive | Active | 2.34 | 84.8 | inactive | inactive | 36.3 | Activity [21]: inactive; Activity [22]: inactive
4 | CCC1(c2ccccc2)C(=O)NC(=O)NC1=O [PHENOBARBITAL] | – | – | – | – | – | – | – | – | – | – | – | – | – | – | – | inactive | – | 21.8 | ED50 [23]: 13.2 mg/kg
5 | Clc1ccc(/C=N/Cc2cccnc2)cc1 | 100 | 100 | 100 | – | 300 | 100 | inactive | inactive | Active | inactive | inactive | inactive | inactive | 2.35 | 125 | inactive | inactive | 53 | Activity [19]: Non-toxic
6 | COc1ccc(/C=N/Cc2cccnc2)cc1O | 30 | 30 | 300 | 100 | 300 | 100 | inactive | inactive | Active | Active | Active | Active | Active | 31 | 198 | inactive | inactive | 6.39 | –
7 | O=C1NC(=O)C(c2ccccc2)(c2ccccc2)N1 | – | – | – | – | – | – | – | – | Active | Active | Active | Active | inactive | – | – | inactive | inactive | – | –
8 | COc1ccccc1/C=N/Cc1cccnc1 | 30 | 30 | 300 | 300 | – | – | inactive | inactive | Active | Active | Active | Active | Active | 15 | 176 | inactive | inactive | 11.7 | Activity [21]: inactive; Activity [22]: inactive
